Measured values as given in patent US20100168033A1, “UNACYLATED GHRELIN AS THERAPEUTIC AGENT IN THE TREATMENT OF METABOLIC DISORDERS” (ALIZE PHARMA SAS, priority 2007, published 2010).
Entries after “also recorded” stand apart in the source; their conditions may differ. Read-outs that look alike come from different tables or passages of the source. No end group written: not given here.

Legend:
human pancreatic islets [1] = experiment: MTT cell survival assay in human pancreatic islets; assay type: cell-based; settings: 1 nM to 100 nM
Protocol: The survival effect of UAG (1-14), UAG (1-18), UAG (1-5) and UAG (17-28), with respect to that of full length UAG (1-28), was assessed in human pancreatic islets by MTT. The peptides were tested in islet cells cultured in serum deprived medium, either alone or with IFN-γ/TNF-α/IL-1β (5 ng/ml each).
Human islet isolation—Human islets were obtained from pancreases of multiorgan donors as described (Ref. 4). Islet preparations with purity >70%, not suitable for transplantation, were provided by European Consortium for Islet Transplantation (ECIT) “Islets for Research Distribution Program,” Transplant Unit, Scientific Institute San Raffaele, Vita-Salute University, Milan. Islets (10,000) were cultured in CMRL (Invitrogen) with 10% FBS.
(§1) Cell survival assay—Cell survival was assessed by 3-[4,5-dimethylthiazol-2-yl]-2,5 diphenyltetrazolium bromide (MTT) as described previously (Ref. 4). Cells were seeded on 96-well plates at a density of 5×10^3 cells/well. After treatments, cells were incubated with 1 mg/ml MTT for ≈1 h. The medium was aspirated, and the formazan product solubilized with 100 μl DMSO. Viability was assessed by spectrophotometry at 570 nm absorbance using a 96-well plate reader.

[2] = test system: UAG receptor on INS-1E pancreatic β-cells; experiment: [125I-Tyr4]-UAG competition binding, INS-1E membranes; parameters: species or system rat; settings: INS-1E cells
Protocol: (§2) The ability of the fragment UAG (6-13) to compete in a concentration-dependent manner with [^125I-Tyr^4]-UAG for HIT-T15 (FIG. 10A) and INS-1E (FIG. 10B) binding sites was assayed. As shown in FIGS. 10A and 10B, unlabelled UAG (1-28) and UAG (6-13) competed with a similar efficacy and in a concentration-dependent fashion with [^125I-Tyr^4]-UAG for such binding sites in both cell lines.
(§3) Binding assay—Membranes from hamster HIT-T15 and rat INS-1E to pancreatic β-cells were prepared and assayed for the presence of [^125I-Tyr^4]-UAG binding. The ability of UAG fragments to compete with the radioligand for such binding sites has been evaluated as previously described (Ref. 4). Data are presented as mean±S.E.M. of three independent experiments.

INS-1E β-cells = experiment: MTT cell survival assay in INS-1E β-cells; assay type: cell-based, rat; settings: peptides 0.1 nM to 100 nM
Protocol: The peptides were tested at increasing concentrations, ranging from 0.1 nM to 100 nM.
(§4) Cell culture—Hamster HIT-T15 insulin-secreting β-cells were obtained and cultured as described (Refs. 14, 4). INS-1E rat β-cells were kindly provided by Prof. Claes B. Wollheim (University Medical Center, Geneva, Switzerland) and cultured as described (Refs. 14, 4). Cell culture reagents were from Invitrogen (Milano, Italy). Cytokines were from Biosource (Invitrogen, Italy).
as §1

HIT-T15 β-cells [3] = experiment: Insulin secretion in HIT-T15 β-cells; assay type: cell-based, hamster; settings: data not shown
Protocol: Insulin secretion—HIT-T15 cells were plated at density of 5×10^5 cells into 100-mm dishes and serum starved for 24 h before incubation for 1 h at 37° C. in HEPES-buffered Krebs-Ringer bicarbonate buffer (KRBH), containing 0.5% BSA with 1.25 mM glucose. The medium was changed and the cells were incubated again for 1 h in KRBH/0.5% BSA containing 1.25, 7.5 or 15 mM glucose. Following acid ethanol extraction of the hormone, secreted insulin was quantitated by a radioimmunoassay kit (Linco Research, Labodia, Yens, Switzerland) which recognizes human insulin and cross reacts with rat insulin.

[4] = test system: UAG receptor on HIT-T15 pancreatic β-cells; experiment: [125I-Tyr4]-UAG competition binding, HIT-T15 membranes; parameters: species or system hamster; settings: HIT-T15 cells
Protocol: as §2, §3

HIT-T15 β-cells [5] = assay type: cell-based
Protocol: MTT experiments were also performed in hamster HIT-T15 β-cells, to test the survival effect of UAG (1-28) or its fragments UAG (1-14), UAG (1-18), UAG (1-5) and UAG (17-28) in serum deprived medium, either alone or with IFN-γ/TNF-α/IL-1β. As for the experiments performed on INS-1E β-cells, the peptides were tested at increasing concentrations, ranging from 0.1 nM to 100 nM.
The survival effect of UAG (6-13), UAG (8-13), UAG (8-12), UAG (8-11), UAG (9-12) and UAG (9-11) was assessed in cytokine-treated HIT-T15 β-cells.
The protective effects of peptides UAG (8-13) and UAG (8-12) were found similar to those of UAG (1-14) and UAG (1-18) A peptide made of the inverse sequence of UAG (1-14) and named UAG (14-1), was used as negative control for these experiments (FIG. 5A). […] These effects were however lower than those of UAG (6-13) (FIG. 5B).
UAG fragments with alanine (Ala) substitutions at different amino acid positions (6 to 13) were tested with regards to their survival effects in HIT-T15 hamster β-cells. The cells were cultured in serum deprived medium, either alone or with IFN-γ/TNF-α/IL-1β. The peptides were tested at the concentrations of 1 nM to 100 nM. […] Under treatment with cytokines, where cell survival was reduced by ≈18% with respect to serum starved conditions, all Ala substitutions, except those at positions 10 and 11, completely reversed cell death and brought the survival rate to levels that were even higher than those under serum-free conditions, at both 1 nM and 100 nM concentrations. These effects, were similar to those elicited by the original peptide UAG (6-13) (FIG. 11B).
Particularly, the best effect was exerted by Gly 6-UAG (6-13), whereas the lowest was seen using AcSer 6-UAG (6-13), AcSer 6-(D)Pro 7-UAG (6-13) (FIG. 12B).
as §4, §1

human pancreatic islets [6] = experiment: Insulin secretion in human pancreatic islets; assay type: cell-based; settings: peptide 100 nM; glucose absent or 2 to 25 mM
Protocol: The effects of UAG (1-14) and UAG (1-18), both used at 100 nM, were investigated on insulin secretion in human islets. […] UAG (1-28) and Exendin-4 were used as positive controls (FIGS. 8C and 8D).

[7] = serum deprived medium with IFN-γ/TNF-α/IL-1β

GSSFLSPEHQRVQQ [UAG (1-14)]
cell survival (MTT) (human pancreatic islets [1]; serum deprived medium alone): significantly increased cell survival in serum deprived medium at 10 nM and 100 nM
cell survival (MTT) (human pancreatic islets [1]; serum deprived medium with IFN-γ/TNF-α/IL-1β (5 ng/ml each)): prevented cell death at 100 nM
binding to the UAG receptor [2]: recognized and bound to the UAG receptor
cell survival (MTT) (INS-1E β-cells; [7]): more potent than full length UAG (1-28); also recorded: even stronger than native UAG
cell survival (MTT) (INS-1E β-cells; serum-free medium): significant survival effect, comparable to that of UAG (1-28)
glucose-induced insulin secretion (HIT-T15 β-cells [3]): significantly increased glucose-induced insulin secretion
binding to the UAG receptor [4]: recognized and bound to the UAG receptor
cell survival (MTT) (HIT-T15 β-cells [5]; serum deprived medium alone): significantly increased cell viability
cell survival (MTT) (HIT-T15 β-cells [5]; [7]): significantly increased cell viability
insulin secretion (human pancreatic islets [6]): significantly increased insulin secretion both in the absence and presence of glucose

exendin-4: positive control for insulin secretion, from Phoenix Pharmaceuticals [reference compound]
glucose-induced insulin secretion (HIT-T15 β-cells [3]): significantly increased glucose-induced insulin secretion
insulin secretion (human pancreatic islets [6]): significantly increased insulin secretion both in the absence and presence of glucose
